Data from patent US20120004268A1, “INSECTICIDAL COMPOSITIONS COMPRISING CYCLIC CARBONYLAMIDINES” (BAYER CROPSCIENCE AG, priority 2010, published 2012).

Assays:
Type in all cases: in vivo
Myzus persicae = experiment: Foliar application Myzus persicae / bell peppers (spray test); conditions: spray on infested bell pepper plants, AMS and/or RME each 1000 ppm in spray liquor where named, 6 days
Description: Foliar Application Myzus persicae/Bell Peppers
(§1) To produce a suitable active compound preparation, 1 part by weight of active compound is mixed with the stated amounts of solvent and emulsifier, and the concentrate is diluted with emulsifier-containing water to the desired concentration. For application with ammonium salts and penetrants (rapeseed oil methyl ester 500 EW), these ingredients are each added to the spray liquor in a concentration of 1000 ppm.
Bell pepper plants (Capsicum annuum) heavily infested by the green peach aphid (Myzus persicae) are treated by spraying with the active compound preparation of the desired concentration. After 6 days, the kill in % is determined. 100% means that all aphids have been killed; 0% means that no aphids have been killed.

Aphis gossypii = experiment: Foliar application Aphis gossypii / cotton (spray test); conditions: spray on infested cotton plants, 6 days
Description: Foliar Application Aphis gossypii/Cotton
as §1
Cotton plants (Gossypium hirsutum) heavily infested by the cotton aphid (Aphis gossypii) are treated by spraying with the active compound preparation of the desired concentration. After 6 days, the kill in % is determined 100% means that all aphids have been killed; 0% means that no aphids have been killed.

Bemisia tabaci = Bemisia tabaci (BEMITA spray treatment) on cotton leaf discs; conditions: 0.8 ppm active compound; spray on cotton leaf discs infested by whitefly larvae; 7 days
Description: Bemisia tabaci (BEMITA Spray Treatment)
To produce a suitable active compound preparation, 1 part by weight of active compound is mixed with the stated amounts of solvents and emulsifier, and the concentrate is diluted with emulsifier-containing water to the desired concentration.
Discs of cotton leaves (Gossypium hirsutum) infested by whitefly (Bemisia tabaci) larvae are sprayed with an active compound preparation of the desired concentration.
After 7 days, the effects in % is determined 100% means that all whiteflies have been killed; 0% means that none of the whiteflies have been killed.

[1] = 0.8 ppm active compound, AMS and/or RME each 1000 ppm in spray liquor where named

Structure (SMILES) | Kill in % after 6d (Myzus persicae; 0.8 ppm active compound) [%] | Kill in % after 6d (Aphis gossypii; [1]) [%] | Kill in % after 6d (Myzus persicae; 4 ppm active compound) [%] | Kill in % after 6d (Aphis gossypii; 4 ppm active compound, RME 1000 ppm in spray liquor where named) [%] | Kill in % after 7d (Bemisia tabaci) [%]
CN(Cc1ccc(Cl)nc1)C1=NC(=O)OC1 [I-1, 4-[[(6-chloro-3-pyridinyl)methyl]methylamino]-2(5H)-oxazolone] | 0 | 35 | – | – | –
O=C1N=C(N(Cc2ccc(Cl)nc2)C2CC2)CO1 [I-6, 4-[[(6-chloro-3-pyridinyl)methyl]cyclopropylamino]-2(5H)-oxazolone] | – | 0 | 15 | 40 | 40
